Results from ChEMBL document CHEMBL1149708, “Novel sulfonamides having dual dopamine D2 and D3 receptor affinity show in vivo antipsychotic efficacy with beneficial cognitive and EPS profile” (Bioorg Med Chem Lett, 2007).
Calls of active or inactive are those of the source. The calls are words filed in the database; no cut-off is given here.

Assays:
D(2) dopamine receptor = D(2) dopamine receptor (Rattus norvegicus, UniProt P61169); test: Displacement of [3H]spiperone from dopamine D2 receptor in rat striatal membranes; type: cell membranes, Membrane
D(2) dopamine receptor, sequence (P61169 whole entry): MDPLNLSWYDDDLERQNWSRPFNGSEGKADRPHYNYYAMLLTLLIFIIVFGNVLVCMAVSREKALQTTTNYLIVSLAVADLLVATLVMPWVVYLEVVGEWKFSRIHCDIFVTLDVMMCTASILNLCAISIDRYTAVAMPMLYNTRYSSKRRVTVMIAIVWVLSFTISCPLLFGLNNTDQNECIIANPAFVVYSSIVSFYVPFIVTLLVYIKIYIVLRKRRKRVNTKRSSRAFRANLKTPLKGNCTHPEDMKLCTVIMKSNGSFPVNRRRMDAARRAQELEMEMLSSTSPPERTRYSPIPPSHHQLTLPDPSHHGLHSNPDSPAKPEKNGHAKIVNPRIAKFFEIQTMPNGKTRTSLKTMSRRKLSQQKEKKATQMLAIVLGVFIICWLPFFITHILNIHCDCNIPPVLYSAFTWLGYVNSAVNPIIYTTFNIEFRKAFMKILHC

D(3) dopamine receptor = D(3) dopamine receptor (Rattus norvegicus, UniProt P19020); test: Displacement of [3H]spiperone from rat dopamine D3 receptor expressed in Sf9 cells
D(3) dopamine receptor, sequence (P19020 whole entry): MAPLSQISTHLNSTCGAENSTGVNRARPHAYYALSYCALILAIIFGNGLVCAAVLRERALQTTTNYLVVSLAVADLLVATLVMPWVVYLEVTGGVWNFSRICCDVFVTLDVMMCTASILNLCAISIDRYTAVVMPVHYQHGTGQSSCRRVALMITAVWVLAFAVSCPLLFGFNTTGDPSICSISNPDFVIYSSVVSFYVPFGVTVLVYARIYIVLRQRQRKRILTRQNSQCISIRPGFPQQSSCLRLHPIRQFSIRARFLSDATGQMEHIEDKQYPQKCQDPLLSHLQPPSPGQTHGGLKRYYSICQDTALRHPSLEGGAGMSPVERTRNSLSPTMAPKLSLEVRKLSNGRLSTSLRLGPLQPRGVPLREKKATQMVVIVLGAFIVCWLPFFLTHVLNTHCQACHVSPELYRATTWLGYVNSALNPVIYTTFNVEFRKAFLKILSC

[1] = Bioavailability in rat at 10 mg/kg; type: ADME, organism-based; conditions: in vivo
[2] = molecular target: D(2) dopamine receptor (Homo sapiens) (UniProt P14416); test: Antagonistic activity at human D2 expressed in CHO cells by [35S]GTP-gamma-S binding assay; type: functional, cell-based
D(2) dopamine receptor (Homo sapiens), sequence (P14416 whole entry): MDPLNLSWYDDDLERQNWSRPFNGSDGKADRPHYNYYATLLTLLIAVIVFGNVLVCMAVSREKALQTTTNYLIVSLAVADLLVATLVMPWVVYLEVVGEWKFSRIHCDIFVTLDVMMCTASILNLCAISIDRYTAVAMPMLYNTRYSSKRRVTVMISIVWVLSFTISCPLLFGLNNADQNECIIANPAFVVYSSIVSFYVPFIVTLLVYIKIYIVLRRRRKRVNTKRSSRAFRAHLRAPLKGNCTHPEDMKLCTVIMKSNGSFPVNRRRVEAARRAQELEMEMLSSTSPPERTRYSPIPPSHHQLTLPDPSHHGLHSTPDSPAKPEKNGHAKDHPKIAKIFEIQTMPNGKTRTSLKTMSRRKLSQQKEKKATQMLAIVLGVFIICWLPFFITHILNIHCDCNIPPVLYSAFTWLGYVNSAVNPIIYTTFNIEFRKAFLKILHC

Rattus norvegicus [3] = test: Catalepsy in orally dosed Wistar rat after 30 mins; type: functional
[4] = Cmax in orally dosed rat brain; type: ADME, organism-based; parameters: route oral; conditions: po
Rattus norvegicus [5] = test: Antipsychotic activity in orally dosed Wistar rat assessed as inhibition of conditioned avoidance response after 1 hr; type: functional; conditions: po
[6] = Tmax in orally dosed rat brain; type: ADME, organism-based; conditions: po
[7] = molecular target: D(3) dopamine receptor (Homo sapiens) (UniProt P35462); test: Antagonistic activity at human D3 receptor expressed in CHO cells by [35S]GTP-gamma-S binding assay; type: functional, cell-based
D(3) dopamine receptor (Homo sapiens), sequence (P35462 whole entry): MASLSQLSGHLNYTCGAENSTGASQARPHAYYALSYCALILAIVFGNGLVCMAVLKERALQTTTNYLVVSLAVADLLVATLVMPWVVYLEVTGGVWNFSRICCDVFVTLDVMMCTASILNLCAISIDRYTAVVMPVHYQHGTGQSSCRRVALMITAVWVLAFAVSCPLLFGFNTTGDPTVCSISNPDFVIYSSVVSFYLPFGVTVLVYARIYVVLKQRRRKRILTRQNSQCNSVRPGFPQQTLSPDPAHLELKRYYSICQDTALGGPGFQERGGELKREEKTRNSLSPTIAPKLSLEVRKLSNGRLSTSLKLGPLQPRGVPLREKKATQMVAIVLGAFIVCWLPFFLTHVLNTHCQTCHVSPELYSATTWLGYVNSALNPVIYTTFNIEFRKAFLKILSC

Mus musculus = test: Antipsychotic activity in orally dosed CD1 mice assessed as inhibition of […] induced climbing behavior; conditions: CD1, po

| Structure (SMILES) | IC50 (D(2) dopamine receptor) [nM] | IC50 (D(3) dopamine receptor) [nM] | further results |
| --- | --- | --- | --- |
| N#Cc1cc(N2CCN(CC[C@H]3CC[C@H](NS(=O)(=O)c4cccnc4)CC3)CC2)cc(C(F)(F)F)c1 | 24 | 0.4 | bioavailability [1]: 55%; Activity [2]: Active; MED (Rattus norvegicus [3]): >200 mg/kg; Cmax [4]: 921 ng/mL; ED50 (Rattus norvegicus [5]): 11.6 mg/kg; Tmax [6]: 1 h; Activity [7]: Active; ED50 (Mus musculus): 22 mg/kg |
| O=C1CCc2ccc(OCCCCN3CCN(c4cccc(Cl)c4Cl)CC3)cc2N1 [ARIPIPRAZOLE] |  |  | ED50 (Rattus norvegicus [5]): 17.9 mg/kg |
| CC(=O)Nc1ccc(S(=O)(=O)N[C@H]2CC[C@H](CCN3CCN(c4cc(C#N)cc(C(F)(F)F)c4)CC3)CC2)cc1 | 39 | 0.9 |  |
| O=S(=O)(N[C@H]1CC[C@H](CCN2CCN(c3cccc(Cl)c3Cl)CC2)CC1)c1cccnc1 | 4 | 0.2 |  |
| COc1ccc(S(=O)(=O)N[C@H]2CC[C@H](CCN3CCN(c4ccc(Br)cc4OC)CC3)CC2)cc1 | 28 | 0.5 |  |
| COc1ccc(S(=O)(=O)N[C@H]2CC[C@H](CCN3CCN(c4cccc(C#N)c4)CC3)CC2)cc1OC | 57 | 0.7 |  |
| O=S(=O)(N[C@H]1CC[C@H](CCN2CCC(Cc3cccc(C(F)(F)F)c3)CC2)CC1)c1ccc(-n2cccn2)cc1 | 4.3 | 0.5 |  |
| O=C1COc2ccc(S(=O)(=O)N[C@H]3CC[C@H](CCN4CCC(Oc5cccc(C(F)(F)F)c5)CC4)CC3)cc2N1 | 5.3 | 1 |  |
| O=S(=O)(N[C@H]1CC[C@H](CCN2CCC(Cc3cccc(C(F)(F)F)c3)CC2)CC1)c1cc2ccccc2s1 | 91 | 2.6 |  |
| Cc1cc2c(s1)Nc1ccccc1N=C2N1CCN(C)CC1 [OLANZAPINE] |  |  | ED50 (Rattus norvegicus [5]): 3.9 mg/kg |

The next lines start with results.

| IC50 (D(2) dopamine receptor) [nM] | IC50 (D(3) dopamine receptor) [nM] | Structure (SMILES) | further results |
| --- | --- | --- | --- |
| 26 | 3.3 | N#Cc1cc(N2CCN(CC[C@H]3CC[C@H](NS(=O)(=O)c4ccc(Br)cc4)CC3)CC2)cc(C(F)(F)F)c1 |  |
| 39 | 4.2 | Cc1ccc(S(=O)(=O)N[C@H]2CC[C@H](CCN3CCN(c4cc(C#N)cc(C(F)(F)F)c4)CC3)CC2)cn1 |  |
| 23 | 5.8 | N#Cc1cc(N2CCN(CC[C@H]3CC[C@H](NS(=O)(=O)c4cccc(C#N)c4)CC3)CC2)cc(C(F)(F)F)c1 |  |
| 9 | 2 | O=S(=O)(N[C@H]1CC[C@H](CCN2CCC(Nc3cc(Cl)ccc3Cl)CC2)CC1)c1ccc(F)cc1 |  |
| 30 | 0.7 | N#Cc1cc(N2CCN(CC[C@H]3CC[C@H](NS(=O)(=O)c4ccc5c(c4)CCC(=O)N5)CC3)CC2)cc(C(F)(F)F)c1 |  |
| 41 | 3.8 | O=S(=O)(N[C@H]1CC[C@H](CCN2CCC(Cc3cccc(C(F)(F)F)c3)CC2)CC1)c1ccc(Cl)cc1 |  |
